## OCc1cn(Cc2ccccc2)nn1
In ethanol, 292.15 K
  solubility (mole fraction): 0.0566
In ethanol, 295.15 K
  solubility (mole fraction): 0.0681
In ethanol, 298.15 K
  solubility (mole fraction): 0.0833
In ethanol, 301.15 K
  solubility (mole fraction): 0.103
In ethanol, 304.15 K
  solubility (mole fraction): 0.129
In ethanol, 307.15 K
  solubility (mole fraction): 0.158
In ethanol, 310.15 K
  solubility (mole fraction): 0.198
In isopropanol, 292.15 K
  solubility (mole fraction): 0.0322
In isopropanol, 295.15 K
  solubility (mole fraction): 0.039
In isopropanol, 298.15 K
  solubility (mole fraction): 0.047
In isopropanol, 301.15 K
  solubility (mole fraction): 0.0576
In isopropanol, 304.15 K
  solubility (mole fraction): 0.0707
In isopropanol, 307.15 K
  solubility (mole fraction): 0.0889
In isopropanol, 310.15 K
  solubility (mole fraction): 0.112
In methanol, 292.15 K
  solubility (mole fraction): 0.122
In methanol, 295.15 K
  solubility (mole fraction): 0.146
In methanol, 298.15 K
  solubility (mole fraction): 0.172
In methanol, 301.15 K
  solubility (mole fraction): 0.2
In methanol, 304.15 K
  solubility (mole fraction): 0.222
In methanol, 307.15 K
  solubility (mole fraction): 0.262
In methanol, 310.15 K
  solubility (mole fraction): 0.3
In n-butanol, 292.15 K
  solubility (mole fraction): 0.0342
In n-butanol, 295.15 K
  solubility (mole fraction): 0.0408
In n-butanol, 298.15 K
  solubility (mole fraction): 0.0481
In n-butanol, 301.15 K
  solubility (mole fraction): 0.0579
In n-butanol, 304.15 K
  solubility (mole fraction): 0.0695
In n-butanol, 307.15 K
  solubility (mole fraction): 0.0832
In n-butanol, 310.15 K
  solubility (mole fraction): 0.1
In n-propanol, 292.15 K
  solubility (mole fraction): 0.0422
In n-propanol, 295.15 K
  solubility (mole fraction): 0.0502
In n-propanol, 298.15 K
  solubility (mole fraction): 0.0607
In n-propanol, 301.15 K
  solubility (mole fraction): 0.0742
In n-propanol, 304.15 K
  solubility (mole fraction): 0.0909
In n-propanol, 307.15 K
  solubility (mole fraction): 0.113
In n-propanol, 310.15 K
  solubility (mole fraction): 0.141
In water, 292.15 K
  solubility (mole fraction): 0.00147
In water, 295.15 K
  solubility (mole fraction): 0.0017
In water, 298.15 K
  solubility (mole fraction): 0.00197
In water, 301.15 K
  solubility (mole fraction): 0.00237
In water, 304.15 K
  solubility (mole fraction): 0.0029
In water, 307.15 K
  solubility (mole fraction): 0.00356
In water, 310.15 K
  solubility (mole fraction): 0.00433
